# Earlier results as cited in patent US20130202637A1, “Dietary Supplements Including Ellagitannins and Ellagic Acid” (priority 2012, published 2013).
# Tests used:
# [1] = system: cervical cancer
# [2] = system: breast cancer
smiles,measurement,setting,value
O=c1oc2c(O)c(O)cc3c(=O)oc4c(O)c(O)cc1c4c23 [ellagic acid],G-Arrest began,[1],72 h
same,G-Arrest began,[2],72 h
